# Measured values taken from patent US8933230B2, “Phosphorus-containing group-substituted quinoline, its preparation process, medical composition containing the compounds and application” (priority 2011, dated 2015).
# Assays:
# Experiment in all cases: KinomeScan kinase panel
# Type in all cases: binding
# TXK = molecular target: T1, TXK (Homo sapiens, UniProt P42681)
# T1 construct: purchased DiscoveRx Corporation (KinomeScan)
# Summary of the method: (§1)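 The compound was profiled across a 442-kinase KinomeScan binding panel at a fixed concentration of 1000 nM; values reflect inhibitory effect at that one dose.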
# HCK = molecular target: T2, HCK (Homo sapiens, UniProt P08631)
# T2 construct: purchased DiscoveRx Corporation (KinomeScan)
# Summary of the method: as §1
# CDK3 = molecular target: T3, CDK3 (Homo sapiens, UniProt Q00526)
# T3 construct: purchased DiscoveRx Corporation (KinomeScan)
# Summary of the method: as §1
# DAPK2 = molecular target: T4, DAPK2 (Homo sapiens, UniProt Q9UIK4)
# T4 construct: purchased DiscoveRx Corporation (KinomeScan)
# Summary of the method: as §1
# BRAF(V600E) = molecular target: T5, BRAF(V600E) (Homo sapiens, UniProt P15056, V600E)
# T5 construct: purchased DiscoveRx Corporation (KinomeScan)
# Summary of the method: as §1
# PRKG2 = molecular target: T6, PRKG2 (Homo sapiens, UniProt Q13237)
# T6 construct: purchased DiscoveRx Corporation (KinomeScan)
# Summary of the method: as §1
# FGFR3(G697C) = molecular target: T7, FGFR3(G697C) (Homo sapiens, UniProt P22607, G697C)
# T7 construct: purchased DiscoveRx Corporation (KinomeScan)
# Summary of the method: as §1
# PLK3 = molecular target: T8, PLK3 (Homo sapiens, UniProt Q9H4B4)
# T8 construct: purchased DiscoveRx Corporation (KinomeScan)
# Summary of the method: as §1
# PIP5K2C = molecular target: T9, PIP5K2C (Homo sapiens, UniProt Q8TBX8)
# T9 construct: purchased DiscoveRx Corporation (KinomeScan)
# Summary of the method: as §1
# FGFR4 = molecular target: T10, FGFR4 (Homo sapiens, UniProt P22455)
# T10 construct: purchased DiscoveRx Corporation (KinomeScan)
# Summary of the method: as §1
# WEE2 = molecular target: T11, WEE2 (Homo sapiens, UniProt P0C1S8)
# T11 construct: purchased DiscoveRx Corporation (KinomeScan service)
# Summary of the method: as §1
# [1] = molecular target: T12, ABL1(F317I)-nonphosphorylated (Homo sapiens, UniProt P00519, F317I)
# T12 construct: purchased DiscoveRx Corporation (KinomeScan)
# Summary of the method: as §1
# PFTK = molecular target: T13, PFTK (Homo sapiens, UniProt O94921)
# T13 construct: purchased DiscoveRx Corporation (KinomeScan)
# Summary of the method: as §1
# PLK4 = molecular target: T14, PLK4 (Homo sapiens, UniProt O00444)
# T14 construct: purchased DiscoveRx Corporation (KinomeScan)
# Summary of the method: as §1
# PRKX = molecular target: T15, PRKX (Homo sapiens, UniProt P51817)
# T15 construct: purchased DiscoveRx Corporation
# Summary of the method: as §1
# ZAK = molecular target: T16, ZAK (Homo sapiens, UniProt Q9NYL2)
# T16 construct: purchased DiscoveRx Corporation (KinomeScan service)
# Summary of the method: as §1
# BTK = molecular target: T17, BTK (Homo sapiens, UniProt Q06187)
# T17 construct: purchased DiscoveRx Corporation (KinomeScan)
# Summary of the method: as §1
# MARK4 = molecular target: T18, MARK4 (Homo sapiens, UniProt Q96L34)
# T18 construct: purchased DiscoveRx Corporation (KinomeScan)
# Summary of the method: as §1
# STK39 = molecular target: T19, STK39 (Homo sapiens, UniProt Q9UEW8)
# T19 construct: purchased DiscoveRx Corporation (KinomeScan)
# Summary of the method: as §1
# TRPM6 = system: TRPM6
# Summary of the method: as §1
# MYO3A = molecular target: T20, MYO3A (Homo sapiens, UniProt Q8NEV4)
# T20 construct: purchased DiscoveRx Corporation (KinomeScan)
# Summary of the method: as §1
# MKK7 = molecular target: T21, MKK7 (Homo sapiens, UniProt O14733)
# T21 construct: purchased DiscoveRx Corporation (KinomeScan)
# Summary of the method: as §1
# TLK1 = molecular target: T22, TLK1 (Homo sapiens, UniProt Q9UKI8)
# T22 construct: purchased DiscoveRx Corporation (KinomeScan)
# Summary of the method: as §1
# NEK9 = molecular target: T23, NEK9 (Homo sapiens, UniProt Q8TD19)
# T23 construct: purchased DiscoveRx Corporation (KinomeScan panel)
# Summary of the method: as §1
# AXL = molecular target: T24, AXL (Homo sapiens, UniProt P30530)
# T24 construct: purchased DiscoveRx Corporation (KinomeScan)
# Summary of the method: as §1
# PHKG1 = molecular target: T25, PHKG1 (Homo sapiens, UniProt Q16816)
# T25 construct: purchased DiscoveRx Corporation (KinomeScan)
# Summary of the method: as §1
# PAK4 = molecular target: T26, PAK4 (Homo sapiens, UniProt O96013)
# T26 construct: purchased DiscoveRx Corporation (KinomeScan panel)
# Summary of the method: as §1
# MAP3K2 = molecular target: T27, MAP3K2 (Homo sapiens, UniProt Q9Y2U5)
# T27 construct: purchased DiscoveRx Corporation (KinomeScan)
# Summary of the method: as §1
# CDK4-cyclinD1 = molecular target: T28, CDK4-cyclinD1 (Homo sapiens, UniProt P11802)
# T28 construct: purchased DiscoveRx Corporation (KinomeScan)
# Summary of the method: as §1
# LOK = molecular target: T29, LOK (Homo sapiens, UniProt O94804)
# T29 construct: purchased DiscoveRx Corporation (KinomeScan)
# Summary of the method: as §1
# PRKCI = molecular target: T30, PRKCI (Homo sapiens, UniProt P41743)
# T30 construct: purchased DiscoveRx Corporation (KinomeScan)
# Summary of the method: as §1
# [2] = molecular target: T31, TYK2(JH1domain-pseudokinase) (Homo sapiens, UniProt P29597)
# T31 construct: pseudokinase; purchased DiscoveRx Corporation (KinomeScan service)
# Summary of the method: as §1
# NDR1 = molecular target: T32, NDR1 (Homo sapiens, UniProt Q15208)
# T32 construct: purchased DiscoveRx Corporation (KinomeScan)
# Summary of the method: as §1
# DCAMKL2 = molecular target: T33, DCAMKL2 (Homo sapiens, UniProt Q8N568)
# T33 construct: purchased DiscoveRx Corporation (KinomeScan)
# Summary of the method: as §1
# CDK9 = molecular target: T34, CDK9 (Homo sapiens, UniProt P50750)
# T34 construct: purchased DiscoveRx Corporation (KinomeScan)
# Summary of the method: as §1
# SBK1 = molecular target: T35, SBK1 (Homo sapiens, UniProt Q52WX2)
# T35 construct: purchased DiscoveRx Corporation (KinomeScan)
# Summary of the method: as §1
# T10 sequence (P22455 22-802): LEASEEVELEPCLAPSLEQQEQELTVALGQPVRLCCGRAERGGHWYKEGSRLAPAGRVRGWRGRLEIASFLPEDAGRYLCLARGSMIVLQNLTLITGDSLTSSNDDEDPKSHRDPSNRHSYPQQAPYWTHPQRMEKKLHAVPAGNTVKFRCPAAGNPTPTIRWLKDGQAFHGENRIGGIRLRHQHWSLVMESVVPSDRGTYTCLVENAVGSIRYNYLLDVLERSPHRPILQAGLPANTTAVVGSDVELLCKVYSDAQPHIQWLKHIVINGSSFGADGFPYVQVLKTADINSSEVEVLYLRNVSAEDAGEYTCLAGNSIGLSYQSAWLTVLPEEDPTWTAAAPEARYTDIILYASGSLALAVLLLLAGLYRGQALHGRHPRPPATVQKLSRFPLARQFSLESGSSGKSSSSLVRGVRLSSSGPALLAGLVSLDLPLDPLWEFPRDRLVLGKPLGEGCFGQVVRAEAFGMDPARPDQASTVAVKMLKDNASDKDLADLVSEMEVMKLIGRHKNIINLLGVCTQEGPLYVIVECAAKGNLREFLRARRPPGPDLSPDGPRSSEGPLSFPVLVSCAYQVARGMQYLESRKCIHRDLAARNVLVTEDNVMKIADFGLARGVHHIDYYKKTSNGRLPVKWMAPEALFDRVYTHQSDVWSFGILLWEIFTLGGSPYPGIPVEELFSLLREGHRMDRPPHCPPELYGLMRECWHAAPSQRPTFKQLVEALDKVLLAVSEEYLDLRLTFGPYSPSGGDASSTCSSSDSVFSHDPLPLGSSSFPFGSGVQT
# T27 sequence (Q9Y2U5 whole entry): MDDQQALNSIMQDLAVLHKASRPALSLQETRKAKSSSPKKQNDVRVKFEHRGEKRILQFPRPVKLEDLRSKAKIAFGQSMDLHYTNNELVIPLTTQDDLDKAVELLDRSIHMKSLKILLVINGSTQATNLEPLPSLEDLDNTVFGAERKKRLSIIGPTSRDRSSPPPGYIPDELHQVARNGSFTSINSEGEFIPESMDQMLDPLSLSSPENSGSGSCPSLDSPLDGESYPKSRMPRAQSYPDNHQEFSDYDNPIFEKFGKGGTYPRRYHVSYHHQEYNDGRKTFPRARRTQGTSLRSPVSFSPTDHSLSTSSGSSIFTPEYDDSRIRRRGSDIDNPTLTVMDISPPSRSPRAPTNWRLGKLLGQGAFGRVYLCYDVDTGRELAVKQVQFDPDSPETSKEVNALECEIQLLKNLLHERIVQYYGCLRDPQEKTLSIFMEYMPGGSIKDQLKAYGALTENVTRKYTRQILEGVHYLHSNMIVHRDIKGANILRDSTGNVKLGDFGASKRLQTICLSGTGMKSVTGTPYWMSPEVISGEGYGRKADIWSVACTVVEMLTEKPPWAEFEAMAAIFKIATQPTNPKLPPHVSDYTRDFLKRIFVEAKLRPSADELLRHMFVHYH
# T20 sequence (Q8NEV4 whole entry): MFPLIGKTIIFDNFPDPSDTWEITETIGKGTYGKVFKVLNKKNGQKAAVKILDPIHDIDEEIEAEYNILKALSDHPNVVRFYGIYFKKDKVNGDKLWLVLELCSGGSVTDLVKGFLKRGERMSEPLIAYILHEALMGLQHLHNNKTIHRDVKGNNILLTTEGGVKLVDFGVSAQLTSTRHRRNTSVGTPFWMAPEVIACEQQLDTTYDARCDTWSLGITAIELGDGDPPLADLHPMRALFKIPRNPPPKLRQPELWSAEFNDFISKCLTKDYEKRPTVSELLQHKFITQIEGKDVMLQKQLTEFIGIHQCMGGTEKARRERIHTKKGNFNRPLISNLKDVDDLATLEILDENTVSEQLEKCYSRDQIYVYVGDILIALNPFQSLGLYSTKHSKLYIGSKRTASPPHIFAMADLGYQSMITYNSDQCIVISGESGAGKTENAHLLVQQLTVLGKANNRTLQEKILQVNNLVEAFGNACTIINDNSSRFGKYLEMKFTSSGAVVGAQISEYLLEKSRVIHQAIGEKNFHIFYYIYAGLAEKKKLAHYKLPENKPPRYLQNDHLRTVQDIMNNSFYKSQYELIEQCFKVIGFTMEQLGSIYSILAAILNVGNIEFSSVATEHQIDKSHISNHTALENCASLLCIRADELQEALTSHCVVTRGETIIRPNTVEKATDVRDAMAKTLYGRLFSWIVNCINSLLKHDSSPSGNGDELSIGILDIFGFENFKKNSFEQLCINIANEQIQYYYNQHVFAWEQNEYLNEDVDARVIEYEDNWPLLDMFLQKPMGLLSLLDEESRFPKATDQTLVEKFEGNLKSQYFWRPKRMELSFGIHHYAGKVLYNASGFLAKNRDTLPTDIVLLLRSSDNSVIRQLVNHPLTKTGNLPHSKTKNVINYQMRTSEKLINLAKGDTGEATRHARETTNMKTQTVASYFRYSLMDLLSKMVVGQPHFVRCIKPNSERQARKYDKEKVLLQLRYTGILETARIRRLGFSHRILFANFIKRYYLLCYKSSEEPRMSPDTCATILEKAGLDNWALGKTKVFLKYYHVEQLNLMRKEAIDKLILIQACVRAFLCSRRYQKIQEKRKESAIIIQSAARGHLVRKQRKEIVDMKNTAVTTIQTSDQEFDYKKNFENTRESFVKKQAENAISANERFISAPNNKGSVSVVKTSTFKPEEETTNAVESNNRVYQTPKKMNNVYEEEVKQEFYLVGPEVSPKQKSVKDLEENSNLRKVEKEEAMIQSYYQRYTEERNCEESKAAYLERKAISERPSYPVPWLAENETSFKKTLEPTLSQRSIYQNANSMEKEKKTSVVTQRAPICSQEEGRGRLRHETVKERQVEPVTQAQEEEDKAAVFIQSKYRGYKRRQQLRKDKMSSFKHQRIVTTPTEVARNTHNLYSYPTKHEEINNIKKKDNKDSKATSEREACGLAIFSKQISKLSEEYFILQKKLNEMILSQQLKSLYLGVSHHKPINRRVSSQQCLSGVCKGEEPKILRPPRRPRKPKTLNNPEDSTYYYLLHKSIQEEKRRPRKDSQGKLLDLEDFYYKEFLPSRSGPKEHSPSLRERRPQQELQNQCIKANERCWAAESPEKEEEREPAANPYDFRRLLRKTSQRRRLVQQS
# T17 sequence (Q06187 whole entry): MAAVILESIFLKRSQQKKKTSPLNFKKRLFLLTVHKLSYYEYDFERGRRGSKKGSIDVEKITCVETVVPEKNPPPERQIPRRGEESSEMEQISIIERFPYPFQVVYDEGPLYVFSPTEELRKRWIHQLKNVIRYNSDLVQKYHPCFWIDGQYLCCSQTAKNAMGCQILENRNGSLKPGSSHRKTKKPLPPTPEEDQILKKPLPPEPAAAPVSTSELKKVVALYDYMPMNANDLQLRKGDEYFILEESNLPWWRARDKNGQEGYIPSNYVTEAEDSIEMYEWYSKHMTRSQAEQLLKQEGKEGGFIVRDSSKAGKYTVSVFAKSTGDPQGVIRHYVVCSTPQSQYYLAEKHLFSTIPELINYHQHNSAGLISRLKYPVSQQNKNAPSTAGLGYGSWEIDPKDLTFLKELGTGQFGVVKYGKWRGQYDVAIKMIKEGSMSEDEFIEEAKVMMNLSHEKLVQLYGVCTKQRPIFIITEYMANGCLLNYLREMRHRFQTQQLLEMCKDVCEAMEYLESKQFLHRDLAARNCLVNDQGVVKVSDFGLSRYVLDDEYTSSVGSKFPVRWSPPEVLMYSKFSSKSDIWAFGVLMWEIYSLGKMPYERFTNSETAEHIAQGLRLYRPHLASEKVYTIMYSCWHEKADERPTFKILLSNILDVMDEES
# T32 sequence (Q15208 whole entry): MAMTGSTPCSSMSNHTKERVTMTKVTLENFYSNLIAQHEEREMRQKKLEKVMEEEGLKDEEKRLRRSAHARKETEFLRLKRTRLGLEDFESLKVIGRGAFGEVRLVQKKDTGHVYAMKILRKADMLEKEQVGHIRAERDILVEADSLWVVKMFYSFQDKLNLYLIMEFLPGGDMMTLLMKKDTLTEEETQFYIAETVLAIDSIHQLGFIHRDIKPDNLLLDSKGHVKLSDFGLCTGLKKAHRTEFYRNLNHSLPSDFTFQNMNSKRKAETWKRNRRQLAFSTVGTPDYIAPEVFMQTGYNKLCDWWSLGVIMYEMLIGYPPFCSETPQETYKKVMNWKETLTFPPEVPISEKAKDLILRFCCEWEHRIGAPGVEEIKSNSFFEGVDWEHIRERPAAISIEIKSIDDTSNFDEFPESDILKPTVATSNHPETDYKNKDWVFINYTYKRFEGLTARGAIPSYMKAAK
# T34 sequence (P50750 whole entry): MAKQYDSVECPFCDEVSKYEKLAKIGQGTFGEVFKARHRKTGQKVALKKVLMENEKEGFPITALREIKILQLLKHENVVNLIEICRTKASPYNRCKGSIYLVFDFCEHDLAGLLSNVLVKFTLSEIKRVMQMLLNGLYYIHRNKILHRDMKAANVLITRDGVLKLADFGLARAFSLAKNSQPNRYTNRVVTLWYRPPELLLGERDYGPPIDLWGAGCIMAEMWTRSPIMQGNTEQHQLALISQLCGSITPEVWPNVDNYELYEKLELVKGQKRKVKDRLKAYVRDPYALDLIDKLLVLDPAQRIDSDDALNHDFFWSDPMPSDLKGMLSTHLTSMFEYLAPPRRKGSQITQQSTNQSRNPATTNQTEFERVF
# T15 sequence (P51817 whole entry): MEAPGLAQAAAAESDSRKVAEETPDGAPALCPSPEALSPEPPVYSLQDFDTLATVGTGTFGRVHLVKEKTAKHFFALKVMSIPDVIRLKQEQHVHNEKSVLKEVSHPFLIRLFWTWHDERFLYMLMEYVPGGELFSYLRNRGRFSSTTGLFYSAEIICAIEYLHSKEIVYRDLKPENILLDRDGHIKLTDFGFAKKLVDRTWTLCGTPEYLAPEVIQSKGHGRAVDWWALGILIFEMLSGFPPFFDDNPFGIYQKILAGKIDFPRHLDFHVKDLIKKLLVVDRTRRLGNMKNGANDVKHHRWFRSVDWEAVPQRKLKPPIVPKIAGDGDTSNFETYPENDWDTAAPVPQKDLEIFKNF
smiles,measurement,setting,value
"CCOP(=O)(CN1CCC(COc2cc3nccc(Oc4ccc(NC(=O)C5(C(=O)Nc6ccc(F)cc6)CC5)cc4F)c3cc2OC)CC1)OCC [Example 10, N1-[4-[[7-[[1-(diethoxyphosphorylmethyl)-4-piperidinyl]methoxyl]-6-methoxyl-4-quinolyl]oxyl]-3-fluorophenyl]-N1′-(4-fluorophenyl)cyclopropane-1,1-dicarboxamide]",% Ctrl@1000 nM,TXK,62 % Ctrl
same,% Ctrl@1000 nM,HCK,0.35 % Ctrl
same,% Ctrl@1000 nM,CDK3,100 % Ctrl
same,% Ctrl@1000 nM,DAPK2,100 % Ctrl
same,% Ctrl@1000 nM,BRAF(V600E),100 % Ctrl
same,% Ctrl@1000 nM,PRKG2,100 % Ctrl
same,% Ctrl@1000 nM,FGFR3(G697C),100 % Ctrl
same,% Ctrl@1000 nM,PLK3,100 % Ctrl
same,% Ctrl@1000 nM,PIP5K2C,38 % Ctrl
same,% Ctrl@1000 nM,FGFR4,100 % Ctrl
same,% Ctrl@1000 nM,WEE2,100 % Ctrl
same,% Ctrl@1000 nM,[1],42 % Ctrl
same,% Ctrl@1000 nM,PFTK,100 % Ctrl
same,% Ctrl@1000 nM,PLK4,7.4 % Ctrl
same,% Ctrl@1000 nM,PRKX,81 % Ctrl
same,% Ctrl@1000 nM,ZAK,36 % Ctrl
same,% Ctrl@1000 nM,BTK,51 % Ctrl
same,% Ctrl@1000 nM,MARK4,100 % Ctrl
same,% Ctrl@1000 nM,STK39,100 % Ctrl
same,% Ctrl@1000 nM,TRPM6,86 % Ctrl
same,% Ctrl@1000 nM,MYO3A,93 % Ctrl
same,% Ctrl@1000 nM,MKK7,100 % Ctrl
same,% Ctrl@1000 nM,TLK1,88 % Ctrl
same,% Ctrl@1000 nM,NEK9,66 % Ctrl
same,% Ctrl@1000 nM,AXL,8 % Ctrl
same,% Ctrl@1000 nM,PHKG1,100 % Ctrl
same,% Ctrl@1000 nM,PAK4,100 % Ctrl
same,% Ctrl@1000 nM,MAP3K2,100 % Ctrl
same,% Ctrl@1000 nM,CDK4-cyclinD1,100 % Ctrl
same,% Ctrl@1000 nM,LOK,0 % Ctrl
same,% Ctrl@1000 nM,PRKCI,100 % Ctrl
same,% Ctrl@1000 nM,[2],100 % Ctrl
same,% Ctrl@1000 nM,NDR1,100 % Ctrl
same,% Ctrl@1000 nM,DCAMKL2,100 % Ctrl
same,% Ctrl@1000 nM,CDK9,100 % Ctrl
same,% Ctrl@1000 nM,SBK1,100 % Ctrl
